Test system: not listed separately
Assay: Parallel Artificial Membrane Permeability Assay (PAMPA)
Format: in vitro ADME
Conditions: 200 uM test compound, 4 hr
Protocol: Parallel Artificial Membrane Permeability Assay (PAMPA). 5 uL of 1% lecithin (VWR 0579) dissolved in n-dodecane (Sigma Aldrich D221104) was applied to each well of a MultiScreen IP PAMPA filter plate (Millipore MAIPSWU10) and allowed to equilibrate for 5 minutes. 300 uL of PBS was added to the acceptor plate and 150 uL of 200 uM test compound dissolved in PBS and 30% ethanol was added to the donor wells before incubating the donor plate in the acceptor plate for 4 hr at 500 rpm. 100 uL was sampled from the donor and acceptor wells and the concentrations were measured by liquid chromatography-mass spectrometry (SCIEX 4500) or UV-VIS plate reader (BMG).

Structure (SMILES)	PAMPA: P_app pH 7.4
CNc1nc(=O)n(-c2nc(-c3cccc(Cl)c3)oc2-c2ccc(Cl)c(F)c2)cc1F [Compound 1]	>50.0 ×10e−6 cm/sec
CC(=O)Nc1ncc2c(-c3ccccc3C)nn(Cc3ccccc3)c2n1 [Compound 266]	>50 ×10e−6 cm/sec
CCn1nc(-c2ccccc2)c2cnc(NC(C)=O)nc21 [Compound 277]	>50 ×10e−6 cm/sec
CC(=O)Nc1ncc2c(-c3ccccc3)nn(Cc3ccccn3)c2n1 [Compound 278]	>50 ×10e−6 cm/sec
CC(=O)Nc1ncc2c(-c3ccccc3)nn(CC3CCCCC3)c2n1 [Compound 280]	19.5 ×10e−6 cm/sec

Results, then the molecule that gave them:

PAMPA: P_app pH 7.4	Structure (SMILES)
>50 ×10e−6 cm/sec	CCc1ccccc1-c1nn(-c2ccc(F)cc2)c2nc(C(=O)NC)ncc12 [Compound 245]
>50 ×10e−6 cm/sec	CNC(=O)c1ncc2c(-c3ccccc3)nn(-c3ccc(F)cc3)c2n1 [Compound 246]
>50 ×10e−6 cm/sec	CNC(=O)c1ncc2c(-c3ccc(F)cc3)nn(Cc3ccccc3)c2n1 [Compound 250]
>50 ×10e−6 cm/sec	CNC(=O)c1ncc2c(-c3cc(F)cc(F)c3)nn(Cc3ccccc3)c2n1 [Compound 252]

Target: T1, YFP-tagged 0N4R-Tau P301S aggregates seeded with 416-AD11A lysate (Homo sapiens, UniProt P10636, P618S)
T1 construct: C-terminally YFP-tagged full length 0N4R-Tau; expressed in transfected cells
T1 sequence (P10636 1-383 isoform P10636-6 P243S): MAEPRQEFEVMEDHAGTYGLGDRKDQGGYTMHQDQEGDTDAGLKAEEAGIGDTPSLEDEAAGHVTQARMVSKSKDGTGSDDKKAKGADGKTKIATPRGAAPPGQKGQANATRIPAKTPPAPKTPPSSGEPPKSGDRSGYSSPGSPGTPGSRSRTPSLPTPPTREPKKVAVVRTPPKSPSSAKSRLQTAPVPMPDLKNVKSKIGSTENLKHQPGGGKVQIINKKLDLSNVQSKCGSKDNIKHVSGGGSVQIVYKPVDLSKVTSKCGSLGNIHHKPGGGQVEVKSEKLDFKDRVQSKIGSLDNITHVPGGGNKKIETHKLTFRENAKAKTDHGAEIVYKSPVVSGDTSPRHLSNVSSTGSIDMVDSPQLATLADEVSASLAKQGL
Assay: Tau-AD high throughput screening (counter screen) in T24 cells
Format: cell-based
Conditions: T24 cells seeded with 416-AD11A lysate
Protocol: A fragment of the Middle Tempral Gyrus (MTG) from Alzheimer's Disease (AD) patient 2217 was resuspended in 9 volumes of PBS (ml/g of brain) and homogenized 3×12 seconds using a probe homogenizer (Thomas Scientific) with disposable Omni Tip plastic homogenizing probes (Thomas Scinetific Cat No 3409Y77) to generate a 10% brain homogenate (10% AD11-BH). The 10% AD11-BH was clarified of insoluble debris by centrifugation at 800×g for 5 minutes. The resulting supernatant was collected and the protein concentration of this clarified BH (AD11-CBH) was determined by bicinchoninic acid assay (BCA) (Thermo Fisher Cat No. 23227). HEK293 cells stably expressing a C-terminally Clover-tagged truncated 4R-Tau^243-382 transgene containing the P301L and V337M mutations and a C-terminally Ruby-tagged truncated 3R-Tau^243-382 transgene containing the L266V and V337M mutations (128/139 cells) were transfected with the AD11-CBH using lipofectamine 2000 (LF2K) (Thermo Fisher Cat No. 11668500). Briefly, 0.32 μl of LF2K were diluted in 5 μl Opti-MEM (Thermo Scientific Cat No 31985070) per well of a 384-well plate and incubated for 5 min at room temperature (RT). This mixture was added to 0.32 μg of AD11-CBH diluted in 5 μl of PBS per well of a 384-well plate and vortex briefly. The transfection mixture was incubated at room temperature for 90 min. The transfection complexes were subsequently added to a single well of a 384-well plate containing 3500 128/139 cells. After 3 days the cells were harvested, counted and plated at a density of 1 cell/well in a 96-well plate. A clonal cell line containing Clover and Ruby positive Tau aggregates was selected and termed 416-AD11A cells. Following the expansion of these 416-AD11A cells, a cell lysate was prepared by freeze/thaw. The cells from a confluent T175 flask were harvested in 1 ml of PBS containing 1× protease inhibitor cocktail by scraping. The cell suspension was subjected to 4 cycles of freezing in liquid nitrogen for 5 minutes followed by thawing at 37° C. for 5 minutes. The resulting cell lysate was centrifuged at 2000 RPM for 10 minutes to remove the cell debris and the protein concentration of the resulting 416-AD11A lysate was determined by BCA assay and aliquots frozen for future use.
HEK293 cells stably expressing C-terminally YFP-tagged full length 0N4R-Tau carrying a P301S mutation (T24 cells) are plated at a density of 4000 cells per well of a 384-well black walled, clear bottom plate (Greiner Cat No 5678-1091Q) in 60 μl of complete DMEM (DMEM (Corning Cat No 10-013-CV), 10% FBS (VWR Cat No 97068-085, 0.5% Penicilin/streptomycin (Gibco Cat No 15140-122)) containing 0.1 μg/ml Hoechst Dye (Thermo Scientific Cat No H3570). Transfection complexes are prepared by diluting 0.15 μg of 416-AD11A lysate or HEK lysate in 5 μl of PBS per well to be transfected and 0.15 μl of Lipofectamine 2000 (LF2K) (ThermoFisher Cat No 11668500) in 5 μl of Opti-MEM per well to be transfected in separate tubes. The pre-diluted 416-AD11A or HEK lysates and LF2K are subsequently mixed and allowed to incubate for 90 minutes at RT. A 10 μl aliquot of the 416-AD11A or HEK transfection complexes is added to the appropriate wells of the 384-well plate containing the T24 cells using the Bravo liquid handling platform (Agilent). Wells A23-P24 of the 384-well plate are transfected with HEK lysate to act as a reference point for spontaneous aggregation of 0N4R^P301S and for transfection related toxicity. The dilution of test compounds is performed using the Bravo liquid handling platform (Agilent). The control is DMSO in the absence of any test compound. Briefly, 1 μl of each test compound (5 mM stock) in the 384-well test plate was transferred to a 384-well plate (Greiner Cat No 781280) containing 61.5 μl of complete DMEM to generate a working stock of compounds at 80 μM. […]

Structure (SMILES)	AD Tau Aggregates (% control)
Cc1cc(-c2nc(-n3cc4ccn(C5CC5)c4nc3=O)c(-c3ccc(F)c(F)c3)o2)ncc1F [Compound 234]	85 % control
Cc1ccnn1-c1nc(-n2cc3ccn(C(F)(F)F)c3nc2=O)c(-c2ccc(F)cc2)o1 [Compound 240]	95 % control
Cc1ccn(-c2nc(-n3cc4ccn(C(F)(F)F)c4nc3=O)c(-c3ccc(F)cc3)o2)n1 [Compound 241]	98 % control
O=c1nc2c(ccn2C(F)(F)F)cn1-c1nc(N2Cc3ccccc3C2)oc1-c1ccc(F)cc1 [Compound 242]	99 % control
CC(=O)Nc1ncc2c(-c3ccccc3)nn(C(C)c3ccccc3)c2n1 (stereo not drawn) [Compound 265]	110 % control
CC(=O)Nc1ncc2c(-c3ccccc3C)nn(Cc3ccccc3)c2n1 [Compound 266]	98 % control
COC(=O)Nc1ncc2c(-c3ccccc3)nn(-c3ccccc3)c2n1 [Compound 274]	94 % control
CC(=O)Nc1ncc2c(-c3ccccc3)nn(Cc3ccncc3)c2n1 [Compound 279]	92 % control
CC(=O)Nc1ncc2c(-c3ccccc3)nn(CC3CCCCC3)c2n1 [Compound 280]	90 % control

Second part, the molecule after the results:

AD Tau Aggregates (% control)	Structure (SMILES)
100 % control	CNC(=O)c1ncc2c(-c3ccccc3Cl)nn(-c3ccc(F)cc3)c2n1 [Compound 244]
120 % control	CCc1ccccc1-c1nn(-c2ccc(F)cc2)c2nc(C(=O)NC)ncc12 [Compound 245]
120 % control	CNC(=O)c1ncc2c(-c3ccccc3)nn(-c3ccc(F)cc3)c2n1 [Compound 246]
95 % control	CNC(=O)c1ncc2c(-c3ccccc3)nn(Cc3ccccc3)c2n1 [Compound 248]
96 % control	CNC(=O)c1ncc2c(-c3cc4c(cnn4C)cc3F)nn(Cc3ccccc3)c2n1 [Compound 253]
100 % control	CNC(=O)c1ncc2c(-c3cccc4c3OC(F)(F)O4)nn(Cc3ccccc3)c2n1 [Compound 254]
110 % control	CNC(=O)c1ncc2c(-c3ccc(F)cc3)nn(CC3CCCCC3)c2n1 [Compound 258]
99 % control	CNC(=O)c1ncc2c(-c3ccc(F)cc3)nn(Cc3ccnc(F)c3)c2n1 [Compound 259]
95 % control	CNC(=O)c1ncc2c(-c3ccc(F)cc3)nn(Cc3cccc(F)c3)c2n1 [Compound 260]
87 % control	CNC(=O)c1ncc2c(-c3ccc(F)cc3)nn(Cc3ccc(F)cc3)c2n1 [Compound 261]
91 % control	CC(=O)Nc1ncc2c(-c3ccccc3)nn(Cc3cncc(F)c3)c2n1 [Compound 267]
100 % control	CCC(=O)Nc1ncc2c(-c3ccccc3)nn(Cc3ccc(OC)cc3)c2n1 [Compound 269]
